Earlier results as cited in patent US20250171403A1 (Synthon B.V., priority 2022, published 2025).

Details: qualitative, background statement

- solubility (prior art, general statement): poorly soluble
SMILES: COc1cc2nccc(Oc3ccc(NC(=O)C4(C(=O)Nc5ccc(F)cc5)CC4)cc3)c2cc1OC [Cabozantinib, N-[4-(6,7-Dimethoxyquinolin-4-yloxy)phenyl]-N′-(4-fluorophenyl)cyclopropane-1,1-dicarboxamide]
